Measured values from ChEMBL document CHEMBL1138491, “An innovative method to study target protein-drug interactions by mass spectrometry” (J Med Chem, 2009).

Target: T1, Peroxisome proliferator-activated receptor alpha (Homo sapiens, UniProt Q07869)
T1 sequence (Q07869 whole entry): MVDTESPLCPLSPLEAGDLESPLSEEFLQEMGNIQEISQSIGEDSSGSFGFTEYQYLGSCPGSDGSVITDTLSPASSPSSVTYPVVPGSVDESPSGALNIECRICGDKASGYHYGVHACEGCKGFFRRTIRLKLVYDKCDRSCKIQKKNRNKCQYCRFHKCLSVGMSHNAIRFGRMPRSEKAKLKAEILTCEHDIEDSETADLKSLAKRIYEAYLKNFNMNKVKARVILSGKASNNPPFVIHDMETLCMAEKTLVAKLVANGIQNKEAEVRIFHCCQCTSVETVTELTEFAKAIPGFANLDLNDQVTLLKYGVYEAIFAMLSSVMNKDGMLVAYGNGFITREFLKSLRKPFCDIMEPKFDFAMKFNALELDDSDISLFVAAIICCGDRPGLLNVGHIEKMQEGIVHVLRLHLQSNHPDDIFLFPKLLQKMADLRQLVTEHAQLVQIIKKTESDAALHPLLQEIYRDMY
Assay: Inhibition of PPARalpha receptor

`CCC(=O)NC[C@H](Cc1ccc(OCCc2nc(-c3ccccc3)oc2C)cc1)N/C(C)=C\C(=O)c1ccc(C(F)(F)F)cc1` showed an IC50 of 240 nM.
